From patent US12023341B2, “Platinum-acridine compounds and methods of treating cancers” (Wake Forest University, priority 2020, dated 2024)

Tests used:
HCT-116 cells = experiment: Uptake of compound 1 after epigenetic drugs, confocal fluorescence microscopy; format: cell-based, human; settings: HCT-116, pre-screen of epigenetic drugs, alone or in combination
Description: We first pre-screened several epigenetic drugs in cultured HCT-116 cells in a multi-well plate format for their ability to increase the uptake of compound 1 using confocal fluorescence microscopy. […] These compounds were then tested again at escalating doses (2.5-20 mM).
Confocal fluorescence microscopy. Cells were seeded and allowed to attach overnight before any treatment. After cells were treated depend on purposes of different experiments, media was removed and dishes were rinsed 3 times with 1 mL of pre-warmed PBS buffer. Cells were then used fixed with 4% formaldehyde in PBS buffer for 15 minutes. Dishes were then washed an additional 3 times with 1 mL of pre-warmed PBS before imaging. Images were collected using a LSM 880 Confocal Microscope (Carl Zeiss Microscopy) using a 63X/1.4NA Plan-Apochromatic objective. The fluorescence of acridine was excited with a 405 nm (15 mW) laser at 4.4% and collected between 405-481 nm. To allow comparative fluorescence intensity analysis, excitation power, pinhole settings, PMT gain, and offset values across and within imaging sessions for each respective channel were not changed. The intensity of acridine-related fluorescence in treated cells was estimated by drawing a region of interest around each cell. A total of more than 100 individual cells across 3 views of 2 independent experiments were analyzed in this fashion. […]

hMATE1 = target: T1, hMATE1 (Homo sapiens, UniProt Q96FL8); settings: reported values; cited from earlier work
T1 sequence (Q96FL8 1-570): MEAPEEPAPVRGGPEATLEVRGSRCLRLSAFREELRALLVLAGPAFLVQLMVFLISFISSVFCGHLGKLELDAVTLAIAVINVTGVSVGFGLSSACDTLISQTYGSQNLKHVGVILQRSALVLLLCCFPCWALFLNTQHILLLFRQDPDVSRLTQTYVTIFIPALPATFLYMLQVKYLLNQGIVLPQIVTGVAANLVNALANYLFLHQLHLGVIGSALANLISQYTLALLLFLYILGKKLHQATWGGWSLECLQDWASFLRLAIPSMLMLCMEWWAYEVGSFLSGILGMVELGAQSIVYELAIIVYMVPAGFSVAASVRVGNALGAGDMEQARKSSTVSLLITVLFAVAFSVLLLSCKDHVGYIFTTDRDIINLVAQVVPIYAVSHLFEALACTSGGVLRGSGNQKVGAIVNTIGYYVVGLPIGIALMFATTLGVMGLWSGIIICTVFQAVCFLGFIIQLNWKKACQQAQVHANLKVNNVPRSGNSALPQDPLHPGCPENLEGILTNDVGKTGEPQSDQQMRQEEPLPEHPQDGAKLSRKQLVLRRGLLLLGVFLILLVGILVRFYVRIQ

With `CS(=O)(=O)c1ccc(-c2cnc(NCc3ccco3)n3cnnc23)cc1` [EED226] the “uptake of compound 1 (acridine-associated blue fluorescence)” value (HCT-116 cells) was “enhanced uptake of compound 1”.

In the case of `CCN(c1cc(-c2ccc(CN3CCOCC3)cc2)cc(C(=O)NCc2c(C)cc(C)[nH]c2=O)c1C)C1CCOCC1` [EPZ-6438], the “uptake of compound 1 (acridine-associated blue fluorescence)” value (HCT-116 cells) is reported as “enhanced uptake of compound 1”.

In the case of `CCc1nc(N)nc(N)c1-c1ccc(Cl)cc1` [pyrimethamine], the Ki (hMATE1) is given as 77 to 93 nM.
